Source: paper PMC4716659 (European journal of medicinal chemistry, 2015)
≈ marks a conversion by molar mass, not a printed value. Entries after “also recorded” stand apart in the source; their conditions may differ.

Assays:
[1] = tested on: methicillin-resistant Staphylococcus aureus (MRSA) ATCC 43300; assay: MIC, broth microdilution; format: cell-based; conditions: MRSA ATCC 43300
S. aureus NRS107 (MRSA) [2] = assay: MIC, broth microdilution; format: cell-based, Staphylococcus aureus; conditions: Staphylococcus aureus, MRSA|NRS107
S. aureus NRS119 (MRSA) [3] = assay: MIC, broth microdilution; format: cell-based, Staphylococcus aureus; conditions: Staphylococcus aureus, MRSA|NRS119
S. aureus NRS194 (MRSA) [4] = assay: MIC, broth microdilution; format: cell-based, Staphylococcus aureus; conditions: Staphylococcus aureus, MRSA|NRS194
S. aureus USA300 (MRSA) [5] = assay: MIC, broth microdilution; format: cell-based, Staphylococcus aureus; conditions: Staphylococcus aureus, MRSA|USA300
S. aureus USA 400 (MRSA) [6] = assay: MIC, broth microdilution; format: cell-based, Staphylococcus aureus; conditions: Staphylococcus aureus, MRSA|USA400
S. aureus USA500 (MRSA) [7] = assay: MIC, broth microdilution; format: cell-based, Staphylococcus aureus; conditions: Staphylococcus aureus, MRSA|USA500
S. aureus NRS1 (VISA) [8] = assay: MIC, broth microdilution; format: cell-based, Staphylococcus aureus; conditions: Staphylococcus aureus, NRS1|VISA
S. aureus NRS19 (VISA) [9] = assay: MIC, broth microdilution; format: cell-based, Staphylococcus aureus; conditions: Staphylococcus aureus, NRS19|VISA
S. aureus NRS37 (VISA) [10] = assay: MIC, broth microdilution; format: cell-based, Staphylococcus aureus; conditions: Staphylococcus aureus, NRS37|VISA
S. aureus VRS1 (VRSA) [11] = assay: MIC, broth microdilution; format: cell-based, Staphylococcus aureus; conditions: Staphylococcus aureus, VRSA
S. aureus VRS4 (VRSA) [12] = assay: MIC, broth microdilution; format: cell-based, Staphylococcus aureus; conditions: Staphylococcus aureus, VRSA
S. aureus VRS5 (VRSA) [13] = assay: MIC, broth microdilution; format: cell-based, Staphylococcus aureus; conditions: Staphylococcus aureus, VRSA
S. aureus NRS107 (MRSA) [14] = assay: MBC, plating onto TSA; format: cell-based, Staphylococcus aureus; conditions: Staphylococcus aureus, MRSA|NRS107
S. aureus NRS119 (MRSA) [15] = assay: MBC, plating onto TSA; format: cell-based, Staphylococcus aureus; conditions: Staphylococcus aureus, MRSA|NRS119
S. aureus NRS194 (MRSA) [16] = assay: MBC, plating onto TSA; format: cell-based, Staphylococcus aureus; conditions: Staphylococcus aureus, MRSA|NRS194
S. aureus USA300 (MRSA) [17] = assay: MBC, plating onto TSA; format: cell-based, Staphylococcus aureus; conditions: Staphylococcus aureus, MRSA|USA300
S. aureus USA 400 (MRSA) [18] = assay: MBC, plating onto TSA; format: cell-based, Staphylococcus aureus; conditions: Staphylococcus aureus, MRSA|USA400
S. aureus USA500 (MRSA) [19] = assay: MBC, plating onto TSA; format: cell-based, Staphylococcus aureus; conditions: Staphylococcus aureus, MRSA|USA500
[20] = tested on: S. aureus ATCC 43300 (MRSA); assay: MBC, plating onto TSA; format: cell-based, Staphylococcus aureus; conditions: Staphylococcus aureus, ATCC43300|MRSA
S. aureus NRS1 (VISA) [21] = assay: MBC, plating onto TSA; format: cell-based, Staphylococcus aureus; conditions: Staphylococcus aureus, NRS1|VISA
S. aureus NRS19 (VISA) [22] = assay: MBC, plating onto TSA; format: cell-based, Staphylococcus aureus; conditions: Staphylococcus aureus, NRS19|VISA
S. aureus NRS37 (VISA) [23] = assay: MBC, plating onto TSA; format: cell-based, Staphylococcus aureus; conditions: Staphylococcus aureus, NRS37|VISA
S. aureus VRS1 (VRSA) [24] = assay: MBC, plating onto TSA; format: cell-based, Staphylococcus aureus; conditions: Staphylococcus aureus, VRSA
S. aureus VRS4 (VRSA) [25] = assay: MBC, plating onto TSA; format: cell-based, Staphylococcus aureus; conditions: Staphylococcus aureus, VRSA
S. aureus VRS5 (VRSA) [26] = assay: MBC, plating onto TSA; format: cell-based, Staphylococcus aureus; conditions: Staphylococcus aureus, VRSA
[27] = tested on: human embryonic kidney (HEK293) cell line; assay: In vitro cytotoxicity, MTS assay; conditions: 40 μg/mL
two VISA isolates = assay: MIC against VISA isolates; format: cell-based; conditions: Staphylococcus aureus
[28] = Staphylococcus aureus, ATCC43300|MRSA

## CCCCc1ccc(-c2nc(C)c(C(N)=O)s2)cc1 [compound 9, 2-(4-Butylphenyl)-4-methylthiazole-5-carboxamide]
[1]; [28]
  MIC: > 35.1 µg/mL

## CCCCc1ccc(-c2nc(C)c(C(=O)NNC(=N)N)s2)cc1 [compound 11, 2-(2-(4-Butylphenyl)-4-methylthiazole-5-carbonyl)hydrazinecarboximidamide]
[1]; [28]
  MIC: > 42.4 µg/mL

## CC(=O)c1sc(-c2ccc(-c3ccc(C(F)(F)F)cc3)cc2)nc1C [21c, 1-(4-Methyl-2-(4′-(trifluoromethyl)-[1,1′-biphenyl]-4-yl)thiazol-5-yl)ethanone]
[1]; [28]
  MIC: > 46.2 µg/mL

## CC(=O)c1sc(-c2ccc(-c3ccc(F)cc3)cc2)nc1C [21b, 1-(2-(4′-Fluoro-[1,1′-biphenyl]-4-yl)-4-methylthiazol-5-yl)ethanone]
[1]; [28]
  MIC: > 39.8 µg/mL

## CC(=O)c1sc(-c2ccc(-c3cccc4ccccc34)cc2)nc1C [compound 24, 1-(4-Methyl-2-(4-(naphthalen-1-yl)phenyl)thiazol-5-yl)ethanone]
[1]; [28]
  MIC: > 43.9 µg/mL

## [H]/N=C(\N)NN=C(C)c1sc(-c2ccc(N)cc2)nc1C [compound 19, (E)-2-(1-(4-Methyl-2-(4-aminophenyl)thiazol-5-yl)ethylidene) hydrazinecarboximidamide]
[1]
  MIC: >36.9 µg/mL

## [H]/N=C(\N)NN=C(C)c1sc(-c2ccc(-c3ccc(O)cc3)cc2)nc1C [22a, (E)-2-(1-(2-(4′-Hydroxy-[1,1′-biphenyl]-4-yl)-4-methylthiazol-5-yl)ethylidene)hydrazinecarboximidamide]
[1]
  MIC: >46.7 µg/mL
[1]; [28]
  MIC: > 36.9 µg/mL

## [H]/N=C(\N)NN=C(C)c1sc(-c2ccc(C#CCCCCCCC)cc2)nc1C [compound 7, (E)-2-(1-(4-Methyl-2-[4-(non-1-yn-1-yl)phenyl]thiazol-5-yl)ethylidene)hydrazinecarboximidamide]
[1]; [28]
  MIC: 12.6 µg/mL (≈ 31.9 µM)

## [H]/N=C(\N)NN=C(C)c1sc(-c2ccc(-c3ccc(C(C)=O)cc3)cc2)nc1C [22d, (E)-2-(1-(2-(4′-Acetyl-[1,1′-biphenyl]-4-yl)-4-methylthiazol-5-yl)ethylidene)hydrazinecarboximidamide]
S. aureus NRS107 (MRSA) [2]
  MIC: 6.3 µg/mL (≈ 16.1 µM)
S. aureus NRS119 (MRSA) [3]
  MIC: 6.3 µg/mL (≈ 16.1 µM)
S. aureus NRS194 (MRSA) [4]
  MIC: 6.3 µg/mL (≈ 16.1 µM)
S. aureus USA300 (MRSA) [5]
  MIC: 6.3 µg/mL (≈ 16.1 µM)
S. aureus USA 400 (MRSA) [6]
  MIC: 6.3 µg/mL (≈ 16.1 µM)
S. aureus USA500 (MRSA) [7]
  MIC: 6.3 µg/mL (≈ 16.1 µM)
[1]; [28]
  MIC: 6.3 µg/mL (≈ 16.1 µM)
S. aureus NRS1 (VISA) [8]
  MIC: 6.3 µg/mL (≈ 16.1 µM)
S. aureus NRS19 (VISA) [9]
  MIC: 12.5 µg/mL (≈ 31.9 µM)
S. aureus NRS37 (VISA) [10]
  MIC: 3.1 µg/mL (≈ 7.92 µM)
S. aureus VRS1 (VRSA) [11]
  MIC: 3.1 µg/mL (≈ 7.92 µM)
S. aureus VRS4 (VRSA) [12]
  MIC: 1.6 µg/mL (≈ 4.09 µM)
S. aureus VRS5 (VRSA) [13]
  MIC: 6.3 µg/mL (≈ 16.1 µM)
S. aureus NRS107 (MRSA) [14]
  MBC: 12.5 µg/mL (≈ 31.9 µM)
S. aureus NRS119 (MRSA) [15]
  MBC: 12.5 µg/mL (≈ 31.9 µM)
S. aureus NRS194 (MRSA) [16]
  MBC: 6.3 µg/mL (≈ 16.1 µM)
S. aureus USA300 (MRSA) [17]
  MBC: 6.3 µg/mL (≈ 16.1 µM)
S. aureus USA 400 (MRSA) [18]
  MBC: 6.3 µg/mL (≈ 16.1 µM)
S. aureus USA500 (MRSA) [19]
  MBC: 6.3 µg/mL (≈ 16.1 µM)
[20]
  MBC: 6.3 µg/mL (≈ 16.1 µM)
S. aureus NRS1 (VISA) [21]
  MBC: 6.3 µg/mL (≈ 16.1 µM)
S. aureus NRS19 (VISA) [22]
  MBC: 12.5 µg/mL (≈ 31.9 µM)
S. aureus NRS37 (VISA) [23]
  MBC: 6.3 µg/mL (≈ 16.1 µM)
S. aureus VRS1 (VRSA) [24]
  MBC: 3.1 µg/mL (≈ 7.92 µM)
S. aureus VRS4 (VRSA) [25]
  MBC: 3.1 µg/mL (≈ 7.92 µM)
S. aureus VRS5 (VRSA) [26]
  MBC: 6.3 µg/mL (≈ 16.1 µM)
[27]
  toxicity to mammalian cells (MTS assay): not toxic; also recorded: improved toxicity profile

## CCCCc1ccc(-c2nc(C)c(C(=O)NC(=N)NC(=N)N)s2)cc1 [compound 10, 2-(4-Butylphenyl)-N-(N-carbamimidoylcarbamimidoyl)-4-methylthiazole-5-carboxamide]
[1]; [28]
  MIC: > 45.8 µg/mL

## [H]/N=C(\N)NN=C(C)c1sc(-c2ccc(-c3ccc(F)cc3)cc2)nc1C [22b, (E)-2-(1-(2-(4′-Fluoro-[1,1′-biphenyl]-4-yl)-4-methylthiazol-5-yl)ethylidene)hydrazinecarboximidamide]
S. aureus NRS107 (MRSA) [2]
  MIC: 2.9 µg/mL (≈ 7.89 µM)
S. aureus NRS119 (MRSA) [3]
  MIC: 5.9 µg/mL (≈ 16.1 µM)
S. aureus NRS194 (MRSA) [4]
  MIC: 5.9 µg/mL (≈ 16.1 µM)
S. aureus USA300 (MRSA) [5]
  MIC: 5.9 µg/mL (≈ 16.1 µM)
S. aureus USA 400 (MRSA) [6]
  MIC: 5.9 µg/mL (≈ 16.1 µM)
S. aureus USA500 (MRSA) [7]
  MIC: 5.9 µg/mL (≈ 16.1 µM)
[1]; [28]
  MIC: 5.9 µg/mL (≈ 16.1 µM)
S. aureus NRS1 (VISA) [8]
  MIC: 2.9 µg/mL (≈ 7.89 µM)
S. aureus NRS19 (VISA) [9]
  MIC: 5.9 µg/mL (≈ 16.1 µM)
S. aureus NRS37 (VISA) [10]
  MIC: 2.9 µg/mL (≈ 7.89 µM)
S. aureus VRS1 (VRSA) [11]
  MIC: 2.9 µg/mL (≈ 7.89 µM)
S. aureus VRS4 (VRSA) [12]
  MIC: 2.9 µg/mL (≈ 7.89 µM)
S. aureus VRS5 (VRSA) [13]
  MIC: 2.9 µg/mL (≈ 7.89 µM)
S. aureus NRS107 (MRSA) [14]
  MBC: 5.9 µg/mL (≈ 16.1 µM)
S. aureus NRS119 (MRSA) [15]
  MBC: 11.7 µg/mL (≈ 31.8 µM)
S. aureus NRS194 (MRSA) [16]
  MBC: 11.7 µg/mL (≈ 31.8 µM)
S. aureus USA300 (MRSA) [17]
  MBC: 5.9 µg/mL (≈ 16.1 µM)
S. aureus USA 400 (MRSA) [18]
  MBC: 11.7 µg/mL (≈ 31.8 µM)
S. aureus USA500 (MRSA) [19]
  MBC: 5.9 µg/mL (≈ 16.1 µM)
[20]
  MBC: 5.9 µg/mL (≈ 16.1 µM)
S. aureus NRS1 (VISA) [21]
  MBC: 2.9 µg/mL (≈ 7.89 µM)
S. aureus NRS19 (VISA) [22]
  MBC: 5.9 µg/mL (≈ 16.1 µM)
S. aureus NRS37 (VISA) [23]
  MBC: 5.9 µg/mL (≈ 16.1 µM)
S. aureus VRS1 (VRSA) [24]
  MBC: 2.9 µg/mL (≈ 7.89 µM)
S. aureus VRS4 (VRSA) [25]
  MBC: 2.9 µg/mL (≈ 7.89 µM)
S. aureus VRS5 (VRSA) [26]
  MBC: 2.9 µg/mL (≈ 7.89 µM)
Two VISA isolates
  MIC: 2.9 to 5.9 µg/mL (≈ 7.89 to 16.1 µM)
[27]
  toxicity to mammalian cells (MTS assay): toxic

## CCCCc1ccc(-c2nc(C)c(/C(N)=N/O)s2)cc1 [compound 15, (Z)-2-(4-Butylphenyl)-N′-hydroxy-4-methylthiazole-5-carboximidamide]
[1]
  MIC: >37.0 µg/mL
[1]; [28]
  MIC: > 35.1 µg/mL

## CCCCc1ccc(-c2nc(C)c(-c3nnn[nH]3)s2)cc1 [compound 16, 2-(4-Butylphenyl)-4-methyl-5-(1H-tetrazol-5-yl)thiazole]
[1]
  MIC: >38.3 µg/mL
[1]; [28]
  MIC: > 35.1 µg/mL

## CCCCc1ccc(-c2nc(C)c(C(=O)NCN(C)C)s2)cc1 [compound 13, 2-(4-Butylphenyl)-N-[(dimethylamino)methyl]-4-methylthiazole-5-carboxamide]
[1]; [28]
  MIC: 44.2 µg/mL (≈ 133 µM)

## CCCCc1ccc(-c2nc(C)c(C(=O)NC[C@@H](O)CO)s2)cc1 [compound 12, (R)-2-(4-Butylphenyl)-N-(2,3-dihydroxypropyl)-4methylthiazole-5-carboxamide]
[1]; [28]
  MIC: 44.5 µg/mL (≈ 128 µM)
